Values of other authors in patent US7342124B2, “Synthetic techniques and intermediates for polyhydroxy dienyl lactones and mimics thereof” (The Trustees Of The University Of Pennsylvania, priority 2003, dated 2008).

Key:
[1] = system: graft-vs.-host splenomegaly response; conditions: induced by injection of parental splenocytes into F1 recipient mice
[2] = system: mitotic spindle microtubules; conditions: compared with taxol
[3] = system: murine splenocytes; conditions: in vitro
[4] = system: two-way mixed-lymphocyte reaction; conditions: in vitro
[5] = system: cell development (M phase); conditions: by binding and stabilizing mitotic spindle microtubules

## C=C/C=C\[C@H](C)[C@H](OC(N)=O)[C@@H](C)[C@H](O)[C@@H](C)C/C(C)=C\[C@H](C)[C@@H](O)[C@@H](C)/C=C\[C@@H](O)C[C@@H]1OC(=O)[C@H](C)[C@@H](O)[C@H]1C [(+)-discodermolide]
[1]
  suppression of graft-vs.-host splenomegaly response, relative potency: potency intermediate between those of cyclosporin A and FK506
[2]
  microtubule binding affinity relative to taxol: much higher
[3]; at suppression of mixed-lymphocyte reaction and concanavalin A-induced mitogenesis
  associated cytotoxicity: no associated cytotoxicity
[3]; murine splenocytes
  suppression of concanavalin A-induced mitogenesis: suppresses
[4]
  suppression of two-way mixed-lymphocyte reaction: suppresses
[5]
  cell cycle arrest: arrests cell development at the M phase
